Tests used:
Assay in all cases: biochemical
Set-up in all cases: species or system HEK293/K-562/placenta mixed human extract; Kinobeads chemoproteomic competition binding, quantified by TMT LC-MS/MS, dose response up to 20 uM
PIK3C3 = PIK3C3 (Homo sapiens, UniProt Q8NEB9)
BRAF = BRAF (Homo sapiens, UniProt P15056)
EPHA4 = EPHA4 (Homo sapiens, UniProt P54764)
CDC37 = CDC37 (Homo sapiens, UniProt Q16543)
GAK = GAK (Homo sapiens, UniProt O14976)
MAP2K2 = MAP2K2 (Homo sapiens, UniProt P36507)
FGFR1 = FGFR1 (Homo sapiens, UniProt P11362)
PRKCQ = PRKCQ (Homo sapiens, UniProt Q04759)
TLK2 = TLK2 (Homo sapiens, UniProt Q86UE8)
mTOR = mTOR (Homo sapiens, UniProt P42345)
LRRK2 = LRRK2 (Homo sapiens, UniProt Q5S007)
LRRK2, sequence (Q5S007 whole entry): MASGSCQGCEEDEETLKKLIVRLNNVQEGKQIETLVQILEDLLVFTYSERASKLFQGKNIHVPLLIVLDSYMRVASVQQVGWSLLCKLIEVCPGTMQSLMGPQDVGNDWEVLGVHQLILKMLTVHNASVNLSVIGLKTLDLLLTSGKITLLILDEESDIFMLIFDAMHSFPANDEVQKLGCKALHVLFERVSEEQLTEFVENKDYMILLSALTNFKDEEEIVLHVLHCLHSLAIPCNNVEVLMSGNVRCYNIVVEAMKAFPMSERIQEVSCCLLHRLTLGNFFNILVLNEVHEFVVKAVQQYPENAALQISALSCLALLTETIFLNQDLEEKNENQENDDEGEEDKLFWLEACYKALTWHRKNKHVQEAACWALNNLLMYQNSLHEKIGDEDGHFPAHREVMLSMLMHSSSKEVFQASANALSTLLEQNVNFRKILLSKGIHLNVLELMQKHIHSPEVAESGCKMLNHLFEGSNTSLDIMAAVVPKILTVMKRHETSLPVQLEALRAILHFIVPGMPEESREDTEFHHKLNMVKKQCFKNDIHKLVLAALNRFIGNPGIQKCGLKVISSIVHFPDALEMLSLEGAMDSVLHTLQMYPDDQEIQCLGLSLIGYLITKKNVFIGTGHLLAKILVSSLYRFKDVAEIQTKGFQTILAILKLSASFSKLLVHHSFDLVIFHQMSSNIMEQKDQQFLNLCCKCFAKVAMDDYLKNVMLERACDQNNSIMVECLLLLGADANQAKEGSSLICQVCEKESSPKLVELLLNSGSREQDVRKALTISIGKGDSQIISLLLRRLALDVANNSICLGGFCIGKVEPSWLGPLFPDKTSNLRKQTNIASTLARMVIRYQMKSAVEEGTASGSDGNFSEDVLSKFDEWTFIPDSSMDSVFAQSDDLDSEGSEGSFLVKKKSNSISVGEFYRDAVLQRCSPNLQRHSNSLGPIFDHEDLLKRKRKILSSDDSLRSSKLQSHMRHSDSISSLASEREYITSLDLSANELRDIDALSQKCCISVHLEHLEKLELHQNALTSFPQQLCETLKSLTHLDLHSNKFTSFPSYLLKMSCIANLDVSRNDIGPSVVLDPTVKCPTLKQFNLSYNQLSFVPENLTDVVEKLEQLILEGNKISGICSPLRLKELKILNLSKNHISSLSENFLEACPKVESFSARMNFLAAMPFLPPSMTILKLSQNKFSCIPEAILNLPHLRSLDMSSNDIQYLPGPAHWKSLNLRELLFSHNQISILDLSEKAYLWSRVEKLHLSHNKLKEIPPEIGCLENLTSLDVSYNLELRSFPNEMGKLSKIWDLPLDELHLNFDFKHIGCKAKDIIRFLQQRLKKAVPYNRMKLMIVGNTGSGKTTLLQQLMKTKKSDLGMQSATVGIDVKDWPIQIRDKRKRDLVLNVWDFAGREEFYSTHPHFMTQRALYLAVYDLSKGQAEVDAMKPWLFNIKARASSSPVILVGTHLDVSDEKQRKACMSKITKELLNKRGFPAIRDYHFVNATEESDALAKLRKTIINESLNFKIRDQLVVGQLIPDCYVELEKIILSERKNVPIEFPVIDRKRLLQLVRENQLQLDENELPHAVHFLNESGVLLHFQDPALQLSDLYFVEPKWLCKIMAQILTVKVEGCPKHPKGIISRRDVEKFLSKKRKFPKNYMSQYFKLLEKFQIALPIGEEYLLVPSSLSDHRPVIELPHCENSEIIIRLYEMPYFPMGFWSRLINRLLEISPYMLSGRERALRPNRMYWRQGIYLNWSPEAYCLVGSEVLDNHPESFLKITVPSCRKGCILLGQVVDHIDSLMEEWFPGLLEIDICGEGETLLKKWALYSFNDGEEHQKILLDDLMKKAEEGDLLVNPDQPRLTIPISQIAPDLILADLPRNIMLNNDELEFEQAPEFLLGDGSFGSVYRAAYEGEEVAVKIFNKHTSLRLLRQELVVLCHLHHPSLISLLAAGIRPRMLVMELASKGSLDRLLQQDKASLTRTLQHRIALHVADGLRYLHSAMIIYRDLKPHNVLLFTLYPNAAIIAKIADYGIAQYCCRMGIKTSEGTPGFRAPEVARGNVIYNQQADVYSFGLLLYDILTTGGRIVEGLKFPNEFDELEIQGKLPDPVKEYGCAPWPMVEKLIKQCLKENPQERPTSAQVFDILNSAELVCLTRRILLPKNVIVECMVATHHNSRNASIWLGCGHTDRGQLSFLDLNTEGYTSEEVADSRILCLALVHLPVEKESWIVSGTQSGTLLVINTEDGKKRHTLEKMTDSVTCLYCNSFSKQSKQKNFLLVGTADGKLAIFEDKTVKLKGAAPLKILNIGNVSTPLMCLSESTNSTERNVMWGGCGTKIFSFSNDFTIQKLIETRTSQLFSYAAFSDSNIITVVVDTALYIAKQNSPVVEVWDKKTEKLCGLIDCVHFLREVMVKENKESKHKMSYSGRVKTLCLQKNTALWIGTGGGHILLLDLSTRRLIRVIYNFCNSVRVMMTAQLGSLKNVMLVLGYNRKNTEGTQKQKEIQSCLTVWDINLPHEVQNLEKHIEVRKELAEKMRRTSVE

MAST2 = MAST2 (Homo sapiens, UniProt Q6P0Q8)
MAST2, sequence (Q6P0Q8 whole entry): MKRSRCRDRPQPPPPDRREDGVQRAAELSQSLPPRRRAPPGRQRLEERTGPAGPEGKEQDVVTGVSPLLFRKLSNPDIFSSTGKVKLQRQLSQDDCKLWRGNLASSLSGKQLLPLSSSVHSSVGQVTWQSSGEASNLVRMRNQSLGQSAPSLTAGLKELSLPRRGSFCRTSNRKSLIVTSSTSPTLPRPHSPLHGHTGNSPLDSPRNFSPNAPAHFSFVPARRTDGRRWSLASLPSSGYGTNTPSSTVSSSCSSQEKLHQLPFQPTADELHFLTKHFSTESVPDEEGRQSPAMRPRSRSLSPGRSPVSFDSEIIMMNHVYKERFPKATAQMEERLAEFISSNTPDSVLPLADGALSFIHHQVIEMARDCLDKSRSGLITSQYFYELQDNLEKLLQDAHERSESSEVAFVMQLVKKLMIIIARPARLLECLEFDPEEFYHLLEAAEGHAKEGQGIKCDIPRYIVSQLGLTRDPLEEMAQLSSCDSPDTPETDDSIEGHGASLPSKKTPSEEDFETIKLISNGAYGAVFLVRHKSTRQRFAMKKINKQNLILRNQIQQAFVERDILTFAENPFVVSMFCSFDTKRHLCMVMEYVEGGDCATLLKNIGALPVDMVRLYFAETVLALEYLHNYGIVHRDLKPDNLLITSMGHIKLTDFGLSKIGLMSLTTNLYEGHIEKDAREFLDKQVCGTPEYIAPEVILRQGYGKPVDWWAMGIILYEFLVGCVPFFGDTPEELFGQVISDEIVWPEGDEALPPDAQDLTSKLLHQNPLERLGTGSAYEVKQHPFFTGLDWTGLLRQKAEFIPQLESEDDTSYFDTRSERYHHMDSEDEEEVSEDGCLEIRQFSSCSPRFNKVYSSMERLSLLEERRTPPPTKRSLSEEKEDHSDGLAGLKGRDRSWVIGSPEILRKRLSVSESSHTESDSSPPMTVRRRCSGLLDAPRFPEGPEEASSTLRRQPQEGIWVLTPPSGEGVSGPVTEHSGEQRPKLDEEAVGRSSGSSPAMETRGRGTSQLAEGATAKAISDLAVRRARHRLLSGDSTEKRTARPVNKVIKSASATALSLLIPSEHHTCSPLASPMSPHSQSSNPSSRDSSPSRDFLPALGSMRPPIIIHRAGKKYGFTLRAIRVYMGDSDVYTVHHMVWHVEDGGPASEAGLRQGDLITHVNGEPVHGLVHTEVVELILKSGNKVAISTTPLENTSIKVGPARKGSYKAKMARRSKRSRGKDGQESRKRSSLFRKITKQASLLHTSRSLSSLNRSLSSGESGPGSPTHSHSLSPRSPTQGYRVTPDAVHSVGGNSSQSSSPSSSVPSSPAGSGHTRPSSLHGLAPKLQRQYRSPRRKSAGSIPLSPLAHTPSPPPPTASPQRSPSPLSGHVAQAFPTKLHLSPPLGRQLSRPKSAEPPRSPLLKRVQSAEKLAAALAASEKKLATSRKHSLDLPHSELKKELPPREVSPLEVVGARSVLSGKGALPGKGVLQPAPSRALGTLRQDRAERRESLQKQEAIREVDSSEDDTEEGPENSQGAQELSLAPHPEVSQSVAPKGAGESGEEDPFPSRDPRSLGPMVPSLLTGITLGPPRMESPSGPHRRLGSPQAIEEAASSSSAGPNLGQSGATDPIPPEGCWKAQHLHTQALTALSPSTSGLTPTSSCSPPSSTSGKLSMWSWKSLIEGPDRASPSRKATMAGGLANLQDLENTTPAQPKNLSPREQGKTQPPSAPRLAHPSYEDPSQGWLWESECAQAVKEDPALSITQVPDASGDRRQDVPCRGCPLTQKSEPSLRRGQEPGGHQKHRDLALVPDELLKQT

EPHA7 = EPHA7 (Homo sapiens, UniProt Q15375)
HIPK2 = HIPK2 (Homo sapiens, UniProt Q9H2X6)
PLK4 = PLK4 (Homo sapiens, UniProt O00444)
ADK = ADK (Homo sapiens, UniProt P55263)
ADK, sequence (P55263 whole entry): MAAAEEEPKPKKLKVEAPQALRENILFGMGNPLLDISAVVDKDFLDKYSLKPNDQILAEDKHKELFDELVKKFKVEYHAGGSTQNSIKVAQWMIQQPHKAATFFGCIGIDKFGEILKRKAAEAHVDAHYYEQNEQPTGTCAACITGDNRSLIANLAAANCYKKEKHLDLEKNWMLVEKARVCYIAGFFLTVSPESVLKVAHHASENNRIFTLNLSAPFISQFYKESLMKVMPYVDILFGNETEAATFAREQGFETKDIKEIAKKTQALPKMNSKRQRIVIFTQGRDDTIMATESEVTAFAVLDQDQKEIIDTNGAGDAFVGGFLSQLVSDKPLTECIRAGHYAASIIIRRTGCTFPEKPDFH

CAMK2G = CAMK2G (Homo sapiens, UniProt Q13555)
HCK = HCK (Homo sapiens, UniProt P08631)
MAP3K4 = MAP3K4 (Homo sapiens, UniProt Q9Y6R4)
ULK1 = ULK1 (Homo sapiens, UniProt O75385)
MAP2K6 = MAP2K6 (Homo sapiens, UniProt P52564)
MAP2K6, sequence (P52564 whole entry): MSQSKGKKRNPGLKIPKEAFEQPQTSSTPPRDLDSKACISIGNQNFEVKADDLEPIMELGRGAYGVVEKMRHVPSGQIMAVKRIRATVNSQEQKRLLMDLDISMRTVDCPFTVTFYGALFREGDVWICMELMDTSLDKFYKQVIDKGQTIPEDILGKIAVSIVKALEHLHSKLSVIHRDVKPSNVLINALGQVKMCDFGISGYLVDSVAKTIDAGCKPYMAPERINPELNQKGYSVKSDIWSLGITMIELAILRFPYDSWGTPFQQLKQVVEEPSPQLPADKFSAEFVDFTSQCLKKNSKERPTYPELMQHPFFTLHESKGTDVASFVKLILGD

IC50 (PIK3C3): ≥ 20 µM | IC50 (BRAF): ≥ 20 µM | IC50 (EPHA4): ≥ 20 µM | IC50 (CDC37): ≥ 20 µM | IC50 (GAK): 9.9 µM | IC50 (MAP2K2): ≥ 20 µM | IC50 (FGFR1): ≥ 20 µM | IC50 (PRKCQ): ≥ 20 µM | IC50 (TLK2): ≥ 20 µM | IC50 (mTOR): ≥ 20 µM | IC50 (LRRK2): ≥ 20 µM | IC50 (MAST2): ≥ 20 µM | IC50 (EPHA7): ≥ 20 µM | IC50 (HIPK2): ≥ 20 µM | IC50 (PLK4): ≥ 20 µM | IC50 (ADK): ≥ 20 µM | IC50 (CAMK2G): ≥ 20 µM | IC50 (HCK): ≥ 20 µM | IC50 (MAP3K4): ≥ 20 µM | IC50 (ULK1): ≥ 20 µM | IC50 (MAP2K6): ≥ 20 µM
SMILES: COc1ccccc1-c1n[nH]c2nc(N[C@H]3CC[C@H](NS(=O)(=O)CCC(F)(F)F)CC3)nc(OC)c12 [compound 31, 3,3,3-Trifluoro-N-(trans-4-((4-methoxy-3-(2-methoxyphenyl)-1H-pyrazolo[3,4-d]pyrimidin-6-yl)amino)cyclohexyl)propane-1-sulfonamide]
